Assay results as given in US4336375A, “Cephalosporanic acid derivatives” (American Cyanamid Company, priority 1980, dated 1982).
Values after ≈ are worked out from the molar mass of the structure shown. Where two headings read alike, the source gives them in different places.

How the values were obtained:
Type in all cases: cell-based
[1] = test system: Klebsiella pneumoniae UR76-1; assay: In vitro MIC, agar dilution, Klebsiella pneumoniae UR76-1; settings: UR761; Klebsiella pneumoniae UR76-1; agar dilution, 35° C., 18 hours, nutrient agar; read-out: Minimal Inhibitory Concentration
Protocol: (§1) The in vitro activity of representative compounds of the present invention are given in the following Table I in terms of minimal inhibitory concentration. The test used was the standard agar dilution test using a Steers multiple inocula replicator and incubating at 35° C. for 18 hours in conventional nutrient agar.

[2] = test system: Klebsiella pneumoniae W75-2; assay: In vitro MIC, agar dilution, Klebsiella pneumoniae W75-2; settings: W752; Klebsiella pneumoniae W75-2; agar dilution, 35° C., 18 hours, nutrient agar; read-out: Minimal Inhibitory Concentration
Protocol: as §1

Serratia marcens QHC77-2 = assay: In vitro MIC, agar dilution, Serratia marcens QHC77-2; settings: QHC772; Serratia marcens QHC77-2; agar dilution, 35° C., 18 hours, nutrient agar; read-out: Minimal Inhibitory Concentration
Protocol: as §1

[3] = test system: Klebsiella pneumoniae W75-4; assay: In vitro MIC, agar dilution, Klebsiella pneumoniae W75-4; settings: W754; Klebsiella pneumoniae W75-4; agar dilution, 35° C., 18 hours, nutrient agar; read-out: Minimal Inhibitory Concentration
Protocol: as §1

Enterococcus SM77-15 = assay: In vitro MIC, agar dilution, Enterococcus SM77-15; settings: SM7715; Enterococcus SM77-15; agar dilution, 35° C., 18 hours, nutrient agar; read-out: Minimal Inhibitory Concentration
Protocol: as §1

[4] = test system: Pseudomonas aeruginosa PD05141; assay: In vitro MIC, agar dilution, Pseudomonas aeruginosa PD05141; settings: Pseudomonas aeruginosa PD05141; agar dilution, 35° C., 18 hours, nutrient agar; read-out: Minimal Inhibitory Concentration
Protocol: as §1

Serratia K101 = assay: In vitro MIC, agar dilution, Serratia K101; settings: Serratia K101; agar dilution, 35° C., 18 hours, nutrient agar; read-out: Minimal Inhibitory Concentration
Protocol: as §1

[5] = test system: Staphylococcus aureus Q74-6; assay: In vitro MIC, agar dilution, Staphylococcus aureus Q74-6; settings: Q746; Staphylococcus aureus Q74-6; agar dilution, 35° C., 18 hours, nutrient agar; read-out: Minimal Inhibitory Concentration
Protocol: as §1

[6] = test system: Pseudomonas aeruginosa 12-4-4; assay: In vitro MIC, agar dilution, Pseudomonas aeruginosa 12-4-4; settings: 1244; Pseudomonas aeruginosa 12-4-4; agar dilution, 35° C., 18 hours, nutrient agar; read-out: Minimal Inhibitory Concentration
Protocol: as §1

[7] = test system: Pseudomonas aeruginosa G236; assay: In vitro MIC, agar dilution, Pseudomonas aeruginosa G236; settings: read-out: Minimal Inhibitory Concentration
Protocol: as §1

Proteus rettgeri N76-1 = assay: In vitro MIC, agar dilution, Proteus rettgeri N76-1; settings: Providencia rettgeri, N761; Proteus rettgeri N76-1; agar dilution, 35° C., 18 hours, nutrient agar; read-out: Minimal Inhibitory Concentration
Protocol: as §1

Proteus morganii K72 = assay: In vitro MIC, agar dilution, Proteus morganii K72; settings: Morganella morganii; Proteus morganii K72; agar dilution, 35° C., 18 hours, nutrient agar; read-out: Minimal Inhibitory Concentration
Protocol: as §1

Escherichia coli 311 = assay: In vitro MIC, agar dilution, Escherichia coli 311; settings: 35° C., 18 hours, nutrient agar, read-out: Minimal Inhibitory Concentration
Protocol: as §1

[8] = test system: Enterobacter cloacae OSU75-2; assay: In vitro MIC, agar dilution, Enterobacter cloacae OSU75-2; settings: OSU752; Enterobacter cloacae OSU75-2; agar dilution, 35° C., 18 hours, nutrient agar; read-out: Minimal Inhibitory Concentration
Protocol: as §1

[9] = test system: Escherichia coli ESS22-31; assay: In vitro MIC, agar dilution, Escherichia coli ESS22-31; settings: read-out: Minimal Inhibitory Concentration
Protocol: as §1

Escherichia coli OSU75-1 = assay: In vitro MIC, agar dilution, Escherichia coli OSU75-1; settings: OSU751, 35° C., 18 hours, nutrient agar, read-out: Minimal Inhibitory Concentration
Protocol: as §1

Klebsiella pneumoniae AD = assay: In vitro MIC, agar dilution, Klebsiella pneumoniae AD; settings: Klebsiella pneumoniae AD; agar dilution, 35° C., 18 hours, nutrient agar; read-out: Minimal Inhibitory Concentration
Protocol: as §1

[10] = test system: Staphylococcus aureus Q74-1; assay: In vitro MIC, agar dilution, Staphylococcus aureus Q74-1; settings: Q741; Staphylococcus aureus Q74-1; agar dilution, 35° C., 18 hours, nutrient agar; read-out: Minimal Inhibitory Concentration
Protocol: as §1

Serratia marcens K77-1 = assay: In vitro MIC, agar dilution, Serratia marcens K77-1; settings: K771; Serratia marcens K77-1; agar dilution, 35° C., 18 hours, nutrient agar; read-out: Minimal Inhibitory Concentration
Protocol: as §1

[11] = test system: Enterobacter cloacae MA75-1; assay: In vitro MIC, agar dilution, Enterobacter cloacae MA75-1; settings: MA751; Enterobacter cloacae MA75-1; agar dilution, 35° C., 18 hours, nutrient agar; read-out: Minimal Inhibitory Concentration
Protocol: as §1

[12] = test system: Enterobacter aerogenes UR76-3; assay: In vitro MIC, agar dilution, Enterobacter aerogenes UR76-3; settings: Klebsiella aerogenes, UR763; Enterobacter aerogenes UR76-3; agar dilution, 35° C., 18 hours, nutrient agar; read-out: Minimal Inhibitory Concentration
Protocol: as §1

[13] = test system: Pseudomonas aeruginosa UCS 76-13; assay: In vitro MIC, agar dilution, Pseudomonas aeruginosa UCS 76-13; settings: UCS7613; Pseudomonas aeruginosa UCS 76-13; agar dilution, 35° C., 18 hours, nutrient agar; read-out: Minimal Inhibitory Concentration
Protocol: as §1

[14] = test system: Klebsiella pneumoniae MA75-1; assay: In vitro MIC, agar dilution, Klebsiella pneumoniae MA75-1; settings: MA751; Klebsiella pneumoniae MA75-1; agar dilution, 35° C., 18 hours, nutrient agar; read-out: Minimal Inhibitory Concentration
Protocol: as §1

Escherichia coli W75-1 = assay: In vitro MIC, agar dilution, Escherichia coli W75-1; settings: W751, 35° C., 18 hours, nutrient agar, read-out: Minimal Inhibitory Concentration
Protocol: as §1

Proteus vulgaris N74-1 = assay: In vitro MIC, agar dilution, Proteus vulgaris N74-1; settings: N741, 35° C., 18 hours, nutrient agar, read-out: Minimal Inhibitory Concentration
Protocol: as §1

For `Nn1c(SCC2=C(C(=O)O)N3C(=O)C(NC(=O)Cc4cccs4)[C@H]3SC2)nnc1-n1cccn1` (stereo partly shown) [Compound IV, 7[2-(2-Thienyl)acetamido]-3-[4-amino-5-(1-pyrazolyl)-1,2,4-triazol-3-ylthiomethyl]-3-cephem-4-carboxylic acid], the MIC [1] was greater than 128 µg/mL, the MIC [2] was 2 µg/mL (≈ 3.86 µM) and the MIC (Serratia marcens QHC77-2) was greater than 128 µg/mL. The MIC [3] was 16 µg/mL (≈ 30.9 µM), the MIC (Enterococcus SM77-15) was 32 µg/mL (≈ 61.7 µM) and the MIC [4] was greater than 128 µg/mL. The MIC (Serratia K101) was greater than 128 µg/mL, the MIC [5] was 0.25 µg/mL (≈ 0.482 µM) and the MIC [6] was greater than 128 µg/mL. It also gave an MIC ([7]; Pseudomonas aeruginosa, G236, 18 h) greater than 128 µg/mL, an MIC (Proteus rettgeri N76-1) greater than 128 µg/mL and an MIC (Proteus morganii K72) greater than 128 µg/mL. The MIC (Escherichia coli 311) was 4 µg/mL (≈ 7.71 µM), the MIC [8] was greater than 128 µg/mL and the MIC ([9]; ESS2231, Escherichia coli ESS22-31, agar dilution, 35° C., 18 hours, nutrient agar) was no more than 0.06 µg/mL. It also gave an MIC (Escherichia coli OSU75-1) of 4 µg/mL (≈ 7.71 µM), an MIC (Klebsiella pneumoniae AD) of 4 µg/mL (≈ 7.71 µM) and an MIC [10] of no more than 0.12 µg/mL. The MIC (Serratia marcens K77-1) was greater than 128 µg/mL, the MIC [11] was greater than 128 µg/mL and the MIC [12] was 1 µg/mL (≈ 1.93 µM). For the same compound, the MIC [13] was greater than 128 µg/mL, the MIC [14] was 2 µg/mL (≈ 3.86 µM) and the MIC (Escherichia coli W75-1) was 8 µg/mL (≈ 15.4 µM).

With `N[C@@H](C(=O)NC1C(=O)N2C(C(=O)O)=C(CSc3n[nH]c(-n4cccn4)n3)CS[C@H]12)c1ccccc1.O=C(O)C(F)(F)F` (stereo partly drawn) [Compound IX, 7-(D-2-Amino-2-phenylacetamido)-3-[5-(1-pyrazolyl)-1,2,4-triazol-3-ylthiomethyl]-3-cephem-4-carboxylic acid, trifluoroacetate salt] the MIC [1] was greater than 128 µg/mL, the MIC [2] was 32 µg/mL and the MIC (Serratia marcens QHC77-2) was greater than 128 µg/mL. For the same compound, the MIC [3] was 32 µg/mL, the MIC (Enterococcus SM77-15) was greater than 128 µg/mL and the MIC [4] was greater than 128 µg/mL. It also gave an MIC (Serratia K101) greater than 128 µg/mL, an MIC [5] of 1 µg/mL and an MIC [6] greater than 128 µg/mL. For the same compound, the MIC ([7]; Pseudomonas aeruginosa G236, agar dilution, 35° C., 18 hours, nutrient agar) was greater than 128 µg/mL, the MIC (Proteus rettgeri N76-1) was greater than 128 µg/mL and the MIC (Proteus morganii K72) was greater than 128 µg/mL. For the same compound, the MIC (Escherichia coli 311) was 16 µg/mL, the MIC [8] was greater than 128 µg/mL and the MIC ([9]; Escherichia coli, ESS2231, 18 h) was no more than 0.12 µg/mL. It also gave an MIC (Escherichia coli OSU75-1) of 16 µg/mL, an MIC (Klebsiella pneumoniae AD) of 8 µg/mL and an MIC [10] of 4 µg/mL. It also gave an MIC (Serratia marcens K77-1) greater than 128 µg/mL, an MIC [11] greater than 128 µg/mL and an MIC (Proteus vulgaris N74-1) greater than 128 µg/mL. The MIC [12] was 16 µg/mL, the MIC [13] was greater than 128 µg/mL and the MIC [14] was 16 µg/mL. The MIC (Escherichia coli W75-1) was 16 µg/mL.
